This data set is described as follows: Surface tension of synthetic pregnant leaching solution (Example 4). It counts as physicochemical. As to conditions: synthetic PLS 6 g/L copper, 2 g/L iron, pH about 2.0. The method, then:
This example investigated a method for determining the impact of a leaching aid on the surface tension of a typical leaching solution. A synthetic pregnant leaching solution (“PLS”) of 6 g/L copper and 2 g/L iron at a pH of about 2.0 was prepared in deionized (“DI”) water to form a quality control (“QC”) feed. To this, mixtures of synthetic PLS having varying levels of Leach aid A (i.e., MC1000) or Leach Aid B (i.e., TMP-7(EO)) were prepared and the surface tension of each solution was measured.

As to `CCCCCCCCCC[N+](C)(C)CC(=O)[O-]` [MC1000], the “surface tension as a function of concentration of the leaching aid” value is listed as “decreased with increasing concentration”.

For the origin of these results see patent US10745778B2, “Leaching aids and methods of using leaching aids” (BASF SE, priority 2015, dated 2020).
